Values of other authors as cited in patent US20110230549A1, “PHARMACEUTICAL COMPOSITIONS FOR THE TREATMENT OF PAIN” (GW Pharma Limited, priority 2005, published 2011).

Legend:
[1] = test system: PBQ-induced writhing in mice; details: compared among cannabinoids and pre-cursors
[2] = test system: patient with familial Mediterranean fever; details: 50 mg

Row | SMILES | Inhibition of PBQ-induced writhing in mice ([1]; oral administration) | Effectiveness at reducing analgesia and inflammation [1] | Amount of analgesia that the patient required [2]
1 | C=C(C)[C@@H]1CCC(C)=C[C@H]1c1c(O)cc(CCCCC)cc1O [CBD, cannabidiol] | most effective |  | 
2 | CCCCCc1cc(O)c2c(c1)OC(C)(C)c1ccc(C)cc1-2 [CBN] |  | least effective | 
3 | CCCCCc1cc(O)c2c(c1)OC(C)(C)[C@@H]1CCC(C)=C[C@@H]21 [THC, delta-9-tetrahydrocannabinol] |  | least effective | highly significant reduction
